Read-outs that look alike come from different tables or passages of the source.
Target: T1, TRPC5 (Homo sapiens, UniProt Q9UL62)
T1 construct: expressed in transfected cells; host or cells: HEK 293
T1 sequence (Q9UL62 1-973): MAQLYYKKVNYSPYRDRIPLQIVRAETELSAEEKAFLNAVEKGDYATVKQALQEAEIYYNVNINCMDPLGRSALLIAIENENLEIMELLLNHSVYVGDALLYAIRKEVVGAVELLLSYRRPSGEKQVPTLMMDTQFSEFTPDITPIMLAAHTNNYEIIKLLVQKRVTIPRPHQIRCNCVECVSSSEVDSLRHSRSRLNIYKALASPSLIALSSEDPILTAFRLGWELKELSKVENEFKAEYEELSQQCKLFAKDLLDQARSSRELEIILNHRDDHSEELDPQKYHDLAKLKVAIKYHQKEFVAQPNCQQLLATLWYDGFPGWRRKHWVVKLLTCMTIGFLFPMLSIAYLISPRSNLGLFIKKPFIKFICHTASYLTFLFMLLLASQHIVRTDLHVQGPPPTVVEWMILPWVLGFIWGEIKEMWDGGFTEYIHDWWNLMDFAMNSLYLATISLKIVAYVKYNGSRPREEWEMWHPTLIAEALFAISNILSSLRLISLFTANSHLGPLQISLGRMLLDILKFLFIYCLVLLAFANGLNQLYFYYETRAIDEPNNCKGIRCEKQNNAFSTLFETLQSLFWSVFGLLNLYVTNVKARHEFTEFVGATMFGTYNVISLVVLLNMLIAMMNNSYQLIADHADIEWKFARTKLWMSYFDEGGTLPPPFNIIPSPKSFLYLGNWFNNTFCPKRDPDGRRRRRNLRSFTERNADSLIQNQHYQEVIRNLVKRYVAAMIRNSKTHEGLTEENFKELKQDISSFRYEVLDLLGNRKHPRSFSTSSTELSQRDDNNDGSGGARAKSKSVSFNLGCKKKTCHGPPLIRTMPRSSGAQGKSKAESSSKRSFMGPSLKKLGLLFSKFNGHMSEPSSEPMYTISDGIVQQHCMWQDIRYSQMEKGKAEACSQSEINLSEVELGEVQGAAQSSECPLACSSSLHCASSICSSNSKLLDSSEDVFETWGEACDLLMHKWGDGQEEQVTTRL
Assay: TRPC5 automated patch clamp assay (Qpatch), current block after rosiglitazone stimulation
Format: cell-based
Conditions: HEK293 cells overexpressing TRPC5
Protocol: HEK 293 cells expressing human TRPC5 were harvested, re-suspended in serum free medium, and added to the automated platform and used within 2-3 hours. Internal and external physiological solutions were freshly prepared prior to the assay. The external solution contained: 145 mM NaCl, 4 mM KCl, 2 mM CaCl2), 1 mM MgCl2, 10 mM HEPES, 10 mM glucose, pH 7.4 with NaOH and 300 mOsm/L. The internal solution contained 120 mM L-aspartic acid, 120 mM CsOH·H2O, 20 mM CsCl, 2 mM MgCl2, 8.8 mM CaCl2), 10 mM EGTA, 10 mM HEPES, 10 mM Glucose, 0.1 mM GTP and 2 mM Na2ATP; pH 7.2 with CsOH and 290 mOsm/L. The free internal Ca2+ concentration was buffered to 1 μM.
The automated electrophysiological platform QPatch 16 from Sophion (Denmark) was used to carry out the compounds profiling. The series resistance and quality of seals were continuously monitored during the experiments. Data was analyzed using Sophion QPatch assay software 5.6 (Odense). IC50 values were calculated using a least squares regression algorithm (Hill equation).
To monitor the ion currents, a voltage ramp from −100 mV to +100 mV, over 300 ms, was applied every 10 seconds, from a holding potential of −60 mV.
After recording for a minimum of 60 seconds control period, Rosiglitazone (30 uM), was applied to activate the channel.

[1] = Table 3, rosiglitazone stimulation, 80 mV, read-out: TRPC5_QP_ XC50_80
[2] = Table 3, rosiglitazone stimulation, 100 mV, read-out: TRPC5_QP_ XC50_100
[3] = rosiglitazone stimulation, 80 mV, read-out: TRPC5_QP XC50_80
[4] = rosiglitazone stimulation, 100 mV, read-out: TRPC5_QP XC50_100
[5] = Table 5, rosiglitazone stimulation, 80 mV, read-out: TRPC5_QP_ XC50_80
[6] = Table 5, rosiglitazone stimulation, 100 mV, read-out: TRPC5_QP_ XC50_100
[7] = Table 4, rosiglitazone stimulation, 80 mV, read-out: TRPC5_QP_ XC50_80
[8] = Table 4, rosiglitazone stimulation, 100 mV, read-out: TRPC5_QP_ XC50_100
[9] = Table 6, read-out: TRPC5-QPatch IC50

O=C1CN(c2cn[nH]c(=O)c2Cl)CCN1Cc1c(F)cccc1F
IC50 [1]: 1 to 5 µM
IC50 [2]: 1 to 5 µM

O=c1[nH]ncc(N2CCN(Cc3ccccc3C(F)(F)F)CC2)c1Cl [drawing 694]
IC50 [1]: 1 to 5 µM
IC50 [2]: 1 to 5 µM

Cc1ccccc1CN1CCN(c2cn[nH]c(=O)c2Cl)CC1=O [drawing 631]
IC50 [3]: 1e-05 to 1 µM
IC50 [4]: 1e-05 to 1 µM

O=C1CN(c2cn[nH]c(=O)c2Cl)CCN1CC1CCC(F)(F)CC1
IC50 [5]: 5 to 10 µM
IC50 [6]: 5 to 10 µM

Cc1ccccc1CN1CCN(c2cn[nH]c(=O)c2CCC(C)C)CC1=O [drawing 695]
IC50 [1]: 10 to 500 µM
IC50 [2]: 10 to 500 µM

Cc1ccccc1CN1CCN(c2cn[nH]c(=O)c2-c2ccccc2)CC1=O
IC50 [1]: 10 to 500 µM
IC50 [2]: 10 to 500 µM

Cc1cc(Cl)ccc1CN1CCN(c2cn[nH]c(=O)c2Cl)CC1=O [drawing 737]
IC50 [7]: 1 to 5 µM
IC50 [8]: 1 to 5 µM

O=c1[nH]ncc(N2CCc3c(ncn3Cc3ccccc3C(F)F)C2)c1Cl [drawing 839]
IC50 [9]: 5 to 10 µM

Cc1cc(F)ccc1CN1CCN(c2cn[nH]c(=O)c2C(F)(F)F)CC1=O
IC50 [5]: 5 to 10 µM
IC50 [6]: 5 to 10 µM

CN(C)C(=O)CN1CCN(c2cn[nH]c(=O)c2Cl)CC1 [drawing 673]
IC50 [1]: 10 to 500 µM
IC50 [2]: 10 to 500 µM

O=c1[nH]ncc(N2CCN(Cc3cccc4[nH]ncc34)CC2)c1Cl
IC50 [7]: 10 to 500 µM
IC50 [8]: 10 to 500 µM

O=c1[nH]ncc(N2CCc3ncn(Cc4ccccc4)c3C2)c1Cl
IC50 [5]: 10 to 500 µM
IC50 [6]: 10 to 500 µM

Cc1n[nH]c(=O)c(N2CCN(Cc3ccccc3C(F)(F)F)C(=O)C2)c1Cl
IC50 [5]: 5 to 10 µM
IC50 [6]: 5 to 10 µM

Cc1ncccc1CN1CCN(c2cn[nH]c(=O)c2Cl)CC1=O
IC50 [5]: 10 to 500 µM
IC50 [6]: 10 to 500 µM

O=C1CN(c2cn[nH]c(=O)c2Cl)CCN1Cc1cccc(-c2ccccc2)c1
IC50 [7]: 10 to 500 µM
IC50 [8]: 10 to 500 µM

COc1ncccc1CN1CCN(c2cn[nH]c(=O)c2Cl)CC1
IC50 [5]: 1 to 5 µM
IC50 [6]: 1 to 5 µM

Cc1ccccc1CN1CCN(c2cn[nH]c(=O)c2C#CC2CC2)CC1=O
IC50 [1]: 10 to 500 µM
IC50 [2]: 10 to 500 µM

CS(=O)(=O)c1ccccc1CN1CCN(c2cn[nH]c(=O)c2Cl)CC1
IC50 [5]: 5 to 10 µM
IC50 [6]: 5 to 10 µM

Cc1cc(F)ccc1CN1CCN(c2ccn[nH]c2=O)CC1
IC50 [5]: 10 to 500 µM
IC50 [6]: 10 to 500 µM

O=c1[nH]ncc(N2CCN(CC3CCCCC3)CC2)c1Br
IC50 [3]: 1 to 5 µM
IC50 [4]: 1 to 5 µM

O=C1N(Cc2ccccc2C(F)(F)F)CCC12CCN(c1cn[nH]c(=O)c1Br)CC2
IC50 [5]: 10 to 500 µM
IC50 [6]: 10 to 500 µM

Cc1cc(F)ccc1CN1CCN(c2cc(-c3ccccc3)n[nH]c2=O)CC1
IC50 [5]: 1 to 5 µM

O=c1[nH]ncc(N2CCN(Cc3ccccc3Cl)CC2)c1Cl [drawing 676]
IC50 [1]: 1 to 5 µM
IC50 [2]: 1 to 5 µM

O=C1CN(c2cn[nH]c(=O)c2Cl)CCN1Cc1cccc(Oc2ccccc2)c1
IC50 [7]: 1 to 5 µM
IC50 [8]: 1 to 5 µM

CCc1cc(F)ccc1Cn1cnc2c1CCN(c1cn[nH]c(=O)c1Cl)C2 [drawing 889]
IC50 [9]: 1e-05 to 1 µM

O=C1N(Cc2ccccc2C(F)(F)F)CCC12CCN(c1cn[nH]c(=O)c1Cl)CC2
IC50 [5]: 10 to 500 µM
IC50 [6]: 10 to 500 µM

O=C1CN(c2c(Cl)c(Br)n[nH]c2=O)CCN1Cc1ccccc1OC(F)(F)F
IC50 [7]: 10 to 500 µM
IC50 [8]: 10 to 500 µM

O=C1CN(c2cn[nH]c(=O)c2Cl)CCN1Cc1ccc(F)cc1
IC50 [5]: 5 to 10 µM
IC50 [6]: 5 to 10 µM

Cc1cc(F)ccc1CN1CCN(c2c(Cl)cn[nH]c2=O)CC1
IC50 [1]: 1 to 5 µM
IC50 [2]: 1 to 5 µM

Cc1ccccc1CN1CCN(c2cn[nH]c(=O)c2C2=CCOCC2)CC1=O
IC50 [1]: 10 to 500 µM
IC50 [2]: 10 to 500 µM
